pIC50: −log10 of the molar value. Where a name gives a salt, the structure may show the parent alone. Read-outs that look alike come from different tables or passages of the source.
Target: BACE1 (Homo sapiens (Human), UniProt P56817)
Experiment: BACE1 Cell-Free Assay (fluorescence polarization)
Assay type: biochemical
Settings: read-out: BACE1 Cell-free Assay IC50
Text: This assay measures the inhibition of the beta-secretase enzyme as it cleaves a non-native peptide.
A synthetic APP substrate that can be cleaved by beta-secretase having N-terminal biotin and made fluorescent by the covalent attachment of Oregon Green at the Cys residue is used to assay beta-secretase activity in the presence or absence of the inhibitory compounds. […] The BACE1 enzyme is affinity purified material from conditioned media of CHO-K1 cells that have been transfected with a soluble BACE construct (BACE1deltaTM96His). […] Plates are covered and incubated for 3 hours at 37° C. […] The activity of the beta-secretase enzyme is detected by changes in the fluorescence polarization that occur when the substrate is cleaved by the enzyme.

[1] = geometric mean of 2-4 determinations unless otherwise indicated (b: ≧5; c: single determination)

Sequence of BACE1 (P56817 46-457): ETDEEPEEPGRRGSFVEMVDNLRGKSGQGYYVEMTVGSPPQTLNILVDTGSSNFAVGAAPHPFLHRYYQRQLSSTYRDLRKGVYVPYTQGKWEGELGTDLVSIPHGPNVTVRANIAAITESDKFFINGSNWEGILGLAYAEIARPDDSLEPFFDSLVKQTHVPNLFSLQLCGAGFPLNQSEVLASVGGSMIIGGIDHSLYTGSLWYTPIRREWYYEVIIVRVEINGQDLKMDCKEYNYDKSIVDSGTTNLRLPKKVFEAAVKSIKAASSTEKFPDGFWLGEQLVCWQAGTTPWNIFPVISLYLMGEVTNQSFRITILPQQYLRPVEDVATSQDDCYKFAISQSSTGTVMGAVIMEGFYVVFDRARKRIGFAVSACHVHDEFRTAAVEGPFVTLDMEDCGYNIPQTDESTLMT

Row | pIC50 [1] | SMILES | pIC50
1 | 5.88 | C[C@H]1C[C@H]2CSC(N)=N[C@@]2(c2nc(NC(=O)c3coc(C4CC4)n3)cs2)CO1 [Example 27, N-{2-[(4aR,6S,8aR)-2-amino-6-methyl-4,4a,5,6-tetrahydropyrano[3,4-d][1,3]thiazin-8a(8H)-yl]-1,3-thiazol-4-yl}-2-cyclopropyl-1,3-oxazole-4-carboxamide] | –
2 | 5.85 | C[C@H]1C[C@H]2CSC(N)=N[C@@]2(c2nc(NC(=O)c3cc(C(F)(F)F)on3)cs2)CO1 [Example 32, N-{2-[(4aR,6S,8aR)-2-amino-6-methyl-4,4a,5,6-tetrahydropyrano[3,4-d][1,3]thiazin-8a(8H)-yl]-1,3-thiazol-4-yl}-5-(trifluoromethyl)-1,2-oxazole-3-carboxamide, trifluoroacetate salt] | –
3 | 5.83 | C[C@H]1C[C@H]2CSC(N)=N[C@@]2(c2nc(NC(=O)c3cc(C4CCC4)nn3C)cs2)CO1 [Example 34, N-{2-[(4aR,6S,8aR)-2-amino-6-methyl-4,4a,5,6-tetrahydropyrano[3,4-d][1,3]thiazin-8a(8H)-yl]-1,3-thiazol-4-yl}-3-cyclobutyl-1-methyl-1H-pyrazole-5-carboxamide] | –
4 | 5.23 | COCc1cc(C(=O)Nc2csc([C@]34CO[C@@H](C)C[C@H]3CSC(N)=N4)n2)no1 [Example 35, N-{2-[(4aR,6S,8aR)-2-amino-6-methyl-4,4a,5,6-tetrahydropyrano[3,4-d][1,3]thiazin-8a(8H)-yl]-1,3-thiazol-4-yl}-5-(methoxymethyl)-1,2-oxazole-3-carboxamide] | –
5 | 6.84 | Cc1nc(C(=O)Nc2csc([C@]34CO[C@@H](C)C[C@H]3CSC(N)=N4)n2)c(C(F)(F)F)o1 [Example 38, N-{2-[(4aR,6S,8aR)-2-amino-6-methyl-4,4a,5,6-tetrahydropyrano[3,4-d][1,3]thiazin-8a(8H)-yl]-1,3-thiazol-4-yl}-2-methyl-5-(trifluoromethyl)-1,3-oxazole-4-carboxamide, trifluoroacetate salt] | –
6 | 6.47 | CCc1nc(C(=O)Nc2csc([C@]34CO[C@@H](C)C[C@H]3CSC(N)=N4)n2)co1 [Example 42, N-{2-[(4aR,6S,8aR)-2-amino-6-methyl-4,4a,5,6-tetrahydropyrano[3,4-d][1,3]thiazin-8a(8H)-yl]-1,3-thiazol-4-yl}-2-ethyl-1,3-oxazole-4-carboxamide, trifluoroacetate salt] | –
7 | 6.36 | C[C@H]1C[C@H]2CSC(N)=N[C@@]2(c2nc(NC(=O)c3ncn(C)n3)cs2)CO1 [Example 43, N-{2-[(4aR,6S,8aR)-2-amino-6-methyl-4,4a,5,6-tetrahydropyrano[3,4-d][1,3]thiazin-8a(8H)-yl]-1,3-thiazol-4-yl}-1-methyl-1H-1,2,4-triazole-3-carboxamide, trifluoroacetate salt] | –
8 | 6.73 | C[C@H]1C[C@H]2CSC(N)=N[C@@]2(c2nc(NC(=O)c3ccc(OC(C)(F)F)cn3)cs2)CO1 [Example 44, N-{2-[(4aR,6S,8aR)-2-amino-6-methyl-4,4a,5,6-tetrahydropyrano[3,4-d][1,3]thiazin-8a(8H)-yl]-1,3-thiazol-4-yl}-5-(1,1-difluoroethoxy)pyridine-2-carboxamide] | –
9 | 6.49 | COc1cnc(C(=O)Nc2csc([C@]34CO[C@@H](C)C[C@H]3CSC(N)=N4)n2)c(C)n1 [Example 46, N-{2-[(4aR,6S,8aR)-2-amino-6-methyl-4,4a,5,6-tetrahydropyrano[3,4-d][1,3]thiazin-8a(8H)-yl]-1,3-thiazol-4-yl}-5-methoxy-3-methylpyrazine-2-carboxamide] | –
10 | 6.63 | C[C@H]1C[C@H]2CSC(N)=N[C@@]2(c2nc(NC(=O)c3ccc(OC(F)F)nc3)cs2)CO1 [Example 48, N-{2-[(4aR,6S,8aR)-2-amino-6-methyl-4,4a,5,6-tetrahydropyrano[3,4-d][1,3]thiazin-8a(8H)-yl]-1,3-thiazol-4-yl}-6-(difluoromethoxy)pyridine-3-carboxamide] | –
11 | 6.99 | Cc1nc(C(=O)Nc2csc([C@]34CO[C@@H](C)C[C@H]3CSC(N)=N4)n2)co1 [Example 49, N-{2-[(4aR,6S,8aR)-2-amino-6-methyl-4,4a,5,6-tetrahydropyrano[3,4-d][1,3]thiazin-8a(8H)-yl]-1,3-thiazol-4-yl}-2-methyl-1,3-oxazole-4-carboxamide] | –

Continued, compound first:

Row | SMILES | pIC50 [1] | pIC50
12 | C[C@H]1C[C@H]2CSC(N)=N[C@@]2(c2nc(NC(=O)c3ccc(OCF)cn3)cs2)CO1 [Example 26, N-{2-[(4aR,6S,8aR)-2-amino-6-methyl-4,4a,5,6-tetrahydropyrano[3,4-d][1,3]thiazin-8a(8H)-yl]-1,3-thiazol-4-yl}-5-(fluoromethoxy)pyridine-2-carboxamide] | 7.17 | –
13 | C[C@H]1C[C@H]2CSC(N)=N[C@@]2(c2nc(NC(=O)c3cnccn3)cs2)CO1 [Example 28, N-{2-[(4aR,6S,8aR)-2-amino-6-methyl-4,4a,5,6-tetrahydropyrano[3,4-d][1,3]thiazin-8a(8H)-yl]-1,3-thiazol-4-yl}pyrazine-2-carboxamide] | 6.19 | –
14 | Cc1nn(C)cc1C(=O)Nc1csc([C@]23CO[C@@H](C)C[C@H]2CSC(N)=N3)n1 [Example 29, N-{2-[(4aR,6S,8aR)-2-amino-6-methyl-4,4a,5,6-tetrahydropyrano[3,4-d][1,3]thiazin-8a(8H)-yl]-1,3-thiazol-4-yl}-1,3-dimethyl-1H-pyrazole-4-carboxamide] | 5.70 | –
15 | C[C@H]1C[C@H]2CSC(N)=N[C@@]2(c2nc(NC(=O)c3cccnn3)cs2)CO1 [Example 30, N-{2-[(4aR,6S,8aR)-2-amino-6-methyl-4,4a,5,6-tetrahydropyrano[3,4-d][1,3]thiazin-8a(8H)-yl]-1,3-thiazol-4-yl}pyridazine-3-carboxamide] | 5.67 | –
16 | C[C@H]1C[C@H]2CSC(N)=N[C@@]2(c2nc(NC(=O)c3cc(C4CC4)on3)cs2)CO1 [Example 31, N-{2-[(4aR,6S,8aR)-2-amino-6-methyl-4,4a,5,6-tetrahydropyrano[3,4-d][1,3]thiazin-8a(8H)-yl]-1,3-thiazol-4-yl}-5-cyclopropyl-1,2-oxazole-3-carboxamide] | 5.42 | –
17 | C[C@H]1C[C@H]2CSC(N)=N[C@@]2(c2nc(NC(=O)c3cn(C4CCC4)cn3)cs2)CO1 [Example 33, N-{2-[(4aR,6S,8aR)-2-amino-6-methyl-4,4a,5,6-tetrahydropyrano[3,4-d][1,3]thiazin-8a(8H)-yl]-1,3-thiazol-4-yl}-1-cyclobutyl-1H-imidazole-4-carboxamide] | 4.47 | –
18 | C[C@H]1C[C@H]2CSC(N)=N[C@@]2(c2nc(NC(=O)c3ccc(=O)n(C)c3)cs2)CO1 [Example 36, N-{2-[(4aR,6S,8aR)-2-amino-6-methyl-4,4a,5,6-tetrahydropyrano[3,4-d][1,3]thiazin-8a(8H)-yl]-1,3-thiazol-4-yl}-1-methyl-6-oxo-1,6-dihydropyridine-3-carboxamide] | 5.85 | –
19 | C[C@H]1C[C@H]2CSC(N)=N[C@@]2(c2nc(NC(=O)c3ccc(OCC(F)F)cn3)cs2)CO1 [Example 37, N-{2-[(4aR,6S,8aR)-2-amino-6-methyl-4,4a,5,6-tetrahydropyrano[3,4-d][1,3]thiazin-8a(8H)-yl]-1,3-thiazol-4-yl}-5-(2,2-difluoroethoxy)pyridine-2-carboxamide, formate salt] | – | 6.31
20 | CCc1cc(C(=O)Nc2csc([C@]34CO[C@@H](C)C[C@H]3CSC(N)=N4)n2)n(C)n1 [Example 39, N-{2-[(4aR,6S,8aR)-2-amino-6-methyl-4,4a,5,6-tetrahydropyrano[3,4-d][1,3]thiazin-8a(8H)-yl]-1,3-thiazol-4-yl}-3-ethyl-1-methyl-1H-pyrazole-5-carboxamide, trifluoroacetate salt] | – | 6.43
21 | C[C@H]1C[C@H]2CSC(N)=N[C@@]2(c2nc(NC(=O)c3cnn(C)n3)cs2)CO1 [Example 40, N-{2-[(4aR,6S,8aR)-2-amino-6-methyl-4,4a,5,6-tetrahydropyrano[3,4-d][1,3]thiazin-8a(8H)-yl]-1,3-thiazol-4-yl}-2-methyl-2H-1,2,3-triazole-4-carboxamide, trifluoroacetate salt] | – | 6.87
22 | Cc1cc(C(=O)Nc2csc([C@]34CO[C@@H](C)C[C@H]3CSC(N)=N4)n2)n(C)n1 [Example 41, N-{2-[(4aR,6S,8aR)-2-amino-6-methyl-4,4a,5,6-tetrahydropyrano[3,4-d][1,3]thiazin-8a(8H)-yl]-1,3-thiazol-4-yl}-1,3-dimethyl-1H-pyrazole-5-carboxamide, trifluoroacetate salt] | 6.44 | –
23 | COc1cnc(C(=O)Nc2csc([C@]34CO[C@@H](C)C[C@H]3CSC(N)=N4)n2)c(C)c1 [Example 47, N-{2-[(4aR,6S,8aR)-2-amino-6-methyl-4,4a,5,6-tetrahydropyrano[3,4-d][1,3]thiazin-8a(8H)-yl]-1,3-thiazol-4-yl}-5-methoxy-3-methylpyridine-2-carboxamide] | 7.00 | –
24 | C[C@H]1C[C@H]2CSC(N)=N[C@@]2(c2nc(NC(=O)c3coc(C(F)(F)F)n3)cs2)CO1 [Example 50, N-{2-[(4aR,6S,8aR)-2-amino-6-methyl-4,4a,5,6-tetrahydropyrano[3,4-d][1,3]thiazin-8a(8H)-yl]-1,3-thiazol-4-yl}-2-(trifluoromethyl)-1,3-oxazole-4-carboxamide] | 6.72 | –
25 | Cc1noc(C(=O)Nc2csc([C@]34CO[C@@H](C)C[C@H]3CSC(N)=N4)n2)n1 [Example 51, N-{2-[(4aR,6S,8aR)-2-amino-6-methyl-4,4a,5,6-tetrahydropyrano[3,4-d][1,3]thiazin-8a(8H)-yl]-1,3-thiazol-4-yl}-3-methyl-1,2,4-oxadiazole-5-carboxamide] | 7.01 | –
